Test results taken from patent US8309056B2, “Method for determination of oxidative stress” (Keio University, priority 2006, dated 2012).

Columns and labels:
[1] = tested on: glutathione biosynthesis pathway in the liver; assay: Metabolites in liver of agent-administered mice vs control mice, measured by CE-TOFMS; type: in vivo
Experimental: Male mice fasted overnight were anesthetized by intraperitoneal injection of pentobarbital sodium (60 mg per Kg body weight). […] The liver (about 300 mg) harvested from mice was immediately plunged into 1 ml of methanol containing internal standards and homogenized to inactivate enzymes and stop increase in metabolism Then, 500 μl of pure water was added and 300 μl of the solution was collected. 200 μl of chloroform was added to the solution, which was then thoroughly mixed. The solution was centrifuged at 15000 rpm at 4° C. for 15 minutes. After left standing, the separated 300 μl-water-methanol phase was centrifugally filtered through an ultrafiltration filter (5 kDa cutoff) to remove proteins. The filtrate was lyophilized and 50 μl of […]® ultrapure water was added thereto prior to CE-MS (CE-TOFMS) analysis. Metabolites having a mass of 1000 or less were comprehensively measured using CE-TOFMS under measuring conditions for cationic metabolites and anionic metabolites. As a capillary, a fused silica capillary having an inner diameter of 50 μm, an outer diameter of 350 μm, and a total length of 100 cm was used. As a buffer, 1 M formic acid (pH is about 1.8) was used. Measurement was performed with an applied voltage of +30 kV and a capillary temperature of 20° C. A sample was injected at 50 mbar for 3 seconds using the pressure method. In TOFMS, the positive ion mode was employed and the ionization, fragmentor, skimmer, and Oct RFV voltages were set at 4 kV, 75 V, 50 V, and 125 V, respectively. Nitrogen was used as a drying gas, which was set at a temperature of 300° C. and a pressure of 10 psig. Methanol solution (50%) was used as a sheath liquid. To this solution, reserpine (m/z 609.2807) was added at 0.5 μM for mass calibration and the solution was delivered at 10μ/min. All the obtained data were automatically calibrated using the mass of reserpine (m/z 609.2807) and methanol adduct ion (m/z 83.0703). As a capillary, SMILE(+) capillary having an inner diameter of 50 μm, an outer diameter of 350 μm, and a total length of 100 cm was used. As a buffer, 50 mM ammonium acetate (pH 8.5) was used. Measurement was performed with an applied voltage of -30 kV and a capillary temperature of 20° C. A sample was injected at 50 mbar for 30 seconds using the pressure method. In TOFMS, the negative ion mode was employed and the ionization, fragmentor, skimmer, and Oct RFV voltage were set at 3.5 kV, 100 V, 50 V, and 200 V, respectively. Nitrogen was used as a drying gas, which was set at a temperature of 300° C. and a pressure of 10 psig. Ammonium acetate (5 mM) in 50% methanol solution was used as a sheath liquid. To this solution, 20 μM PIPES and 1 μM reserpine (m/z 609.2807) was added for mass calibration and was delivered at 10μ/min. All the obtained data were automatically calibrated using the mass of reserpine (m/z 609.2807), monovalent PIPES (m/z 301.0534), and divalent PIPES (m/z 150.0230). […] The extracts were comprehensively and quantitatively analyzed with a capillary electrophoresis-mass spectrometer (CE-MS) or the like. […] Ophthalmic acid preparation was obtained and compared with the unknown substance.

serum metabolites = assay: Metabolites in serum of AAP-administered mice vs control mice, measured by CE-TOFMS; type: in vivo
Experimental: Male mice fasted overnight were anesthetized by intraperitoneal injection of pentobarbital sodium (60 mg per Kg body weight). […] Metabolites having a mass of 1000 or less were comprehensively measured using CE-TOFMS under measuring conditions for cationic metabolites and anionic metabolites. As a capillary, a fused silica capillary having an inner diameter of 50 μm, an outer diameter of 350 μm, and a total length of 100 cm was used. As a buffer, 1 M formic acid (pH is about 1.8) was used. Measurement was performed with an applied voltage of +30 kV and a capillary temperature of 20° C. A sample was injected at 50 mbar for 3 seconds using the pressure method. In TOFMS, the positive ion mode was employed and the ionization, fragmentor, skimmer, and Oct RFV voltages were set at 4 kV, 75 V, 50 V, and 125 V, respectively. Nitrogen was used as a drying gas, which was set at a temperature of 300° C. and a pressure of 10 psig. Methanol solution (50%) was used as a sheath liquid. To this solution, reserpine (m/z 609.2807) was added at 0.5 μM for mass calibration and the solution was delivered at 10μ/min. All the obtained data were automatically calibrated using the mass of reserpine (m/z 609.2807) and methanol adduct ion (m/z 83.0703). As a capillary, SMILE(+) capillary having an inner diameter of 50 μm, an outer diameter of 350 μm, and a total length of 100 cm was used. As a buffer, 50 mM ammonium acetate (pH 8.5) was used. Measurement was performed with an applied voltage of -30 kV and a capillary temperature of 20° C. A sample was injected at 50 mbar for 30 seconds using the pressure method. In TOFMS, the negative ion mode was employed and the ionization, fragmentor, skimmer, and Oct RFV voltage were set at 3.5 kV, 100 V, 50 V, and 200 V, respectively. Nitrogen was used as a drying gas, which was set at a temperature of 300° C. and a pressure of 10 psig. Ammonium acetate (5 mM) in 50% methanol solution was used as a sheath liquid. To this solution, 20 μM PIPES and 1 μM reserpine (m/z 609.2807) was added for mass calibration and was delivered at 10μ/min. […]

[2] = 2 hours after administration, vs control mice
[3] = at 1 and 2 hours after administration (time course)
[4] = time course 1-24 hours after administration

SMILES | GSH in liver [1, 2] | ophthalmic acid in liver [1, 2] | γ-Glu-2-aminobutyric acid (γ-Glu-2AB) in liver [1, 2] | γ-Glu-Cys in liver [1, 2] | ophthalmic acid in serum (serum metabolites; [3]) | GSH in serum (serum metabolites; [4]) | GSSH in serum (serum metabolites; [4]) | all the substances in the glutathione biosynthesis pathway in the liver [1, 2] | oxidized glutathione (GSSG) in liver [1, 2] | GSH in liver [1, 3] | ophthalmic acid in liver [1, 3] | GSSH in liver [1, 4]
CCCCS(=N)(=O)CCC(N)C(=O)O (stereo not drawn) [BSO, buthionine sulfoximine] | remarkably decreased | remarkably decreased | remarkably decreased | remarkably decreased | – | – | – | – | – | – | – | –
CC(=O)Nc1ccc(O)cc1 [AAP, Acetaminophen] | Dramatically decreased | increase | increase | – | dramatically increased | not detected | a behavior similar to that of GSH in liver | decrease | Dramatically decreased | rapidly decreased | dramatically increased | a behavior similar to that of GSH in liver
